Results on 4 compounds are retold here after patent US20120270819A1, “USE OF COMPOUNDS WITH SGLT-1/SGLT-2 INHIBITOR ACTIVITY FOR PRODUCING MEDICAMENTS FOR TREATMENT OF BONE DISEASE” (SANOFI, priority 2009, published 2012).

The assay has as its target T1, human sodium-dependent glucose transporter 1 (SGLT1, SLC5A1) (Homo sapiens, UniProt P13866).
T1 construct: Bases 11 to 2005 correspond to the complete coding region of human SGLT1; expressed in transfected cells; host or cells: CHO-TRex cells (Invitrogen), pcDNA4/TO vector, tetracycline-induced
T1 sequence (P13866 1-664): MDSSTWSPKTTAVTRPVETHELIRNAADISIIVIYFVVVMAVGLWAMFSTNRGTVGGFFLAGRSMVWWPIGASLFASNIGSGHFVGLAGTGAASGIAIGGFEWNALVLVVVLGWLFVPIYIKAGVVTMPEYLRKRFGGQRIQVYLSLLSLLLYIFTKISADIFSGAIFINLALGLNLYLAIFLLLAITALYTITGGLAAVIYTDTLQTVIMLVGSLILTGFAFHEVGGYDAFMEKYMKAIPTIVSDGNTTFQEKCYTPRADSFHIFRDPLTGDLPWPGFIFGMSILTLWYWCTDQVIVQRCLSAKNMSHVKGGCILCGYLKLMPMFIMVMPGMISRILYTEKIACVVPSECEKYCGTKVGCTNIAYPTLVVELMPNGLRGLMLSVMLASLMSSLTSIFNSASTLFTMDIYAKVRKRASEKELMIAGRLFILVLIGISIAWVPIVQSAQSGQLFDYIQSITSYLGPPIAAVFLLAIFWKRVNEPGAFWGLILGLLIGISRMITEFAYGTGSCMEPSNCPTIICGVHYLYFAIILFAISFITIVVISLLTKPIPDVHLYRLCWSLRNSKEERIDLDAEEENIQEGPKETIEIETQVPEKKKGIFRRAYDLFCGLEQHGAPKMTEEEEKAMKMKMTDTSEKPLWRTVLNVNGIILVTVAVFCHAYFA
Briefly: Inhibition of methyl α-D-glucopyranoside uptake in CHO-TRex-hSGLT1 cells. The class given is cell-based. The settings on record: recombinant SGLT1; read-out: IC50 SGLT 1. An excerpt:
A further method for testing the activity of the compounds is the inhibition of the transport activity of the human sodium-dependent glucose transporter 1 (SGLT1, SLC5A1) in vitro:
1. Cloning of an Expression Vector for Human SGLT1
The cDNA for human SGLT1 was introduced into the pcDNA4/TO vector (Invitrogen) by standard methods of molecular biology as described in Sambrook et al. (Sambrook et al., Molecular Cloning, A Laboratory Manual, 2nd Edition). […] Bases 11 to 2005 correspond to the complete coding region of human SGLT1.
2. Preparation of a Recombinant Cell Line with Inducible Expression of Human SGLT1
The expression vector for human SGLT1 was introduced into CHO-TRex cells (Invitrogen) by means of FuGene6 lipofection (Roche). To select single cell clones, 600 μg/ml Zeocin (Invitrogen) was added to the cell culture medium (Nutrient Mixture F-12 (Ham), (Invitrogen) supplemented with 10% fetal calf serum (BD Biosciences), 10 μg/ml blasticidin S(CN Biosciences), 100 units/ml penicillin, 100 units/ml streptomycin). The functionality of the single cell clones resulting from the selection was tested via their uptake activity for radiolabeled methyl α-D-glucopyranoside. The cell clone with the greatest uptake activity for methyl α-D-glucopyranoside, referred to as CHO-TRex-hSGLT1 hereinafter, was selected for further experiment, and cultivation was continued in the presence of 600 μg/ml of zeocin.
3. Measurement of the Inhibitory Effect of Test Substances on the Uptake of Methyl-D-qlucopyranoside (-MDG)
CHO-TRex-hSGLT1 cells were seeded in a concentration of 50 000 cells per well in Cytostar-T scintillating 96-well plates (Amersham Biosciences) in cell culture medium and cultivated for 24 h. Expression of the recombinant human SGLT1 was induced by adding 1 μg/ml tetracyclin for a further 24 h. For α-MDG uptake experiments, the cells were washed with PBS and then starved (PBS supplemented with 10% fetal calf serum) at 37° C. for one hour. […]
The final concentration of methyl α-D-glucopyranoside in the assay was 50 μM. After an incubation time of 30 min at room temperature, the reaction was stopped by adding 50 μl/well of 10 mM methyl α-D-glucopyranoside in transport assay buffer (4° C.), and the radioactivity uptake by the cells was determined in a MicroBeta Scintillation Microplate Reader (Wallac). The half-maximum inhibitory effect of the test substances (IC50) was determined in the following way: • 1. […] This is the measurement in the absence of substance, measured in sodium-containing transport assay buffer. • 2. […] This is the measurement in the absence of substance, measured in sodium-free transport assay buffer (140 mM choline chloride, 2 mM potassium chloride, 1 mM magnesium chloride, 1 mM calcium chloride, 10 mM HEPES/Tris, pH7.5). • 3. […]
In the case of `COc1ccc(Cc2ccccc2OC2OC(CO)C(F)C(O)C2O)cc1` (stereo not shown) [Example 1 of formula III], the IC50 (in general, the concentration that inhibits the measured activity by half) stood at 770 nM.

For `CCc1ccc(Cc2ccccc2OC2OC(CO)C(F)C(O)C2O)cc1` (stereo not shown) [Example 20 of formula III], the IC50 was found to be 320 nM.

On to `CC(C)c1[nH]nc(OC2OC(CO)C(F)C(O)C2O)c1Cc1ccc(CCCC(=O)NC(CO)(CO)CO)cc1` (stereo not shown) [Example 21 of formula I], for which the 50% inhibitory concentration (IC50) was 27 nM.

Regarding `COc1ccc(Cc2c(OC3OC(CO)C(F)C(O)C3O)n[nH]c2C(F)(F)F)cc1` (stereo not shown) [Example 5 of formula II], the 50% inhibitory concentration (IC50) was 29 nM.
